Assay results from patent US20130115271A1, “PREDICTORS OF PHARMACOKINETIC AND PHARMACODYNAMIC DISPOSITION OF CARRIER-MEDIATED AGENTS” (THE UNIVERSITY OF NORTH CAROLINA AT CHAPEL HILL, priority 2010, published 2013).

Assays:
[1] = system: absolute neutrophil count (ANC); test: Degree of neutropenia in phase I studies of S-CKD602 and NL-CKD602; assay type: in vivo, human; details: patients with refractory solid tumors
Excerpt: (§1) To examine the relationship between S-CKD602 PK and monocytes (MO) in patients, we evaluated the degree of neutropenia and monocytopenia as part of phase I studies of S-CKD602 and non-liposomal CKD-602 (NL-CKD602) in patients with refractory solid tumors. After administration of NL-CKD602, the % decrease at nadir in absolute neutrophil count (ANC) and MO were 86±11% and 87±12%, respectively (P>0.05). For NL-CKD602, the ratio of % decrease in MO to ANC was 1.1±0.4. After administration of S-CKD602, the % decrease at nadir in ANC and MO were 42±30% and 58±34%, respectively (P=0.001). For S-CKD602, the ratio of % decrease in MO to ANC was 2.1±2.0. The relationship between the % decrease in MO at nadir and CL of encapsulated CKD-602 and the release of CKD-602 from S-CKD602 in plasma are presented in FIGS. 3 and 4, respectively. […] The CL of encapsulated drug and release of drug from the liposome in plasma is related to a reduction in MO. […] Consistent with the PK-PD interaction between S-CKD602 and MO we also have reported that decreased DOXIL® CL from cycle 1 to 3 is related to a reduction in MO during each subsequent cycle (Gabizon et al., (1994) Cancer Res. 54: 987-992; La-Beck et al., (2009) J. Clin. Oncol. 27(15S)).

monocytes (MO) = test: Degree of monocytopenia in phase I studies of S-CKD602 and NL-CKD602; assay type: in vivo, human; details: patients with refractory solid tumors
Excerpt: as §1

CC[C@@]1(O)C(=O)OCc2c1cc1n(c2=O)Cc2c-1nc1ccccc1c2CCNC(C)C [NL-CKD602]
% decrease at nadir in absolute neutrophil count (ANC) [1]: 86±11% | % decrease at nadir in monocytes (MO) (monocytes (MO)): 87±12% | ratio of % decrease in MO to ANC (monocytes (MO)): 1.1±0.4
